Results on five compounds are retold here after patent publication EP4692094A1 (Beijing Konruns Pharmaceutical Co., Ltd., priority 2023, dated 2024).

For one data set, the target named is T1, KAT8 (Homo sapiens, UniProt Q9H7Z6).
T1 construct: purchased active motife (Active Motif) 81225
T1 sequence (Q9H7Z6 1-458): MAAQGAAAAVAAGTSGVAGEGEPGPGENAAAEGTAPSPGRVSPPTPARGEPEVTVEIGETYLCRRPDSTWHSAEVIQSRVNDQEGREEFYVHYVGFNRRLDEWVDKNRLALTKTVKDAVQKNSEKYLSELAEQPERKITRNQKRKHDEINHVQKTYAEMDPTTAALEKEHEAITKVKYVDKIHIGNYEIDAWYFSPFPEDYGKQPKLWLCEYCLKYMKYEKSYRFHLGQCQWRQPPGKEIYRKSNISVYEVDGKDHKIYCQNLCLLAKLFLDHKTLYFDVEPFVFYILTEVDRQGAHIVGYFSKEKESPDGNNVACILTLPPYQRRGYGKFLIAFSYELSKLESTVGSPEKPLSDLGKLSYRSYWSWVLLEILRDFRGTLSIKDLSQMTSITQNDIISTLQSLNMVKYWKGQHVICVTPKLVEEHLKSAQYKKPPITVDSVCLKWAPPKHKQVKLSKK
Description: Enzymatic activity assay for KAT8 acetyltransferase (TR-FRET). Conditions: KAT8 10 nM, AcCOA 2 µM. Format: biochemical. How it is done:
The acetylation effects of KAT6B on histone substrate H3, as well as KAT5, KAT7, and KAT8 on histone substrate H4, were determined using the TR-FRET (time-resolved fluorescence resonance energy transfer) method. The determination was performed according to experimental procedures similar to those in "Pharmacological Experiment I": 1.2 Preparation of compounds: The compounds prepared in the examples were each dissolved in dimethylsulfoxide to give solutions at a concentration of 10 mmol/L. • 1) The compounds in the examples were each diluted from 10 mmol/L stock solution to 0.2 mmol/L, i.e., 1 µL of the compound was added to 49 µL of DMSO, and 3-fold dilution was performed to give 10 concentrations. • 2) 50 nL of the test compounds were transferred to 384 reaction plates using Echo, two replicates for each compound, and the plates were centrifuged at a rotation speed of 1000 rpm for 1 min, the final concentration of dimethylsulfoxide (DMSO) being 0.5%.
For KAT8: • 3) 2.5 µL of the KAT8 enzyme solution at a final concentration of 10 nM was added to the 384 reaction plates in step 2), and the plates were centrifuged at 1000 rpm for 1 min and incubated at 25 °C for 10 min. • 4) 2.5 µL of […] at a final concentration of 300 nM and an AcCOA (acetyl-CoA) reaction solution at a final concentration of 2 µM were added to the 384 reaction plates in step 3), and the plates were centrifuged at a rotation speed of 1000 rpm for 1 min and incubated at 25 °C for 90 min. • 5) 5 µL of Eu-Ab& Ulight-SA detection solution was separately added to the 384 reaction plates in step 4) of the 4 groups described above, and the plates were centrifuged at 1000 rpm for 1 min and incubated at 25 °C for 60 min. • 6) The HTRF […] signals were read using a BMG high-throughput drug-screening multi-mode microplate reader.
The acetylation levels of the histones in the groups were analyzed by the GraphPad Prism 8 software. […]

A short description of data set [1]: Assay for plasma protein binding rate (equilibrium dialysis), mouse plasma. The following applies: dialysis 6 h at 37 °C, read-out: Mouse (Fu%). The class given is in vitro ADME. How it is done:
1.1 Preparation of compounds: The compounds prepared in the examples were each dissolved in dimethylsulfoxide to give solutions at a concentration of 10 mmol/L. • 1) The example compounds were each diluted from 10 mmol/L stock solution to 0.2 mmol/L, i.e., 1 µL of the compound was added to 49 µL of DMSO; • 2) 3 µL of 0.2 mmol/L test compounds were added to 597 µL of blood plasma, and the mixtures were vortexed at 1000 rpm for 2 min; • 3) 50 µL of the plasma containing the drug in 2) was taken, 50 µL of PBS was added, and 300 µL of methanol internal standard* was added to serve as a sample T0; • 4) 120 µL of the plasma containing the drug in 2) was taken and added to one side of an HTD device membrane, and 120 µL of PBS was added to the other side of the membrane; a breathable film was covered, and the plasma and the residual sample in 2) were balanced at 37 °C (100 rpm and 5% CO2) for 6 h; • 5) 50 µL of the dialyzed plasma side sample was taken, 50 µL of PBS was added, and 300 µL of methanol internal standard* was added to serve as a sample P; • 6) 50 µL of the dialyzed PBS side sample was taken, 50 µL of blank plasma was added, and 300 µL of methanol internal standard* was added to serve as a sample B; • 7) 50 µL of the plasma containing the drug in 2) was taken, 50 µL of PBS was added, and 300 µL of methanol internal standard* was added to serve as a sample T6; • 8) All samples were vortexed, mixed homogeneously, and then centrifuged at 3220 g for 40 min at 4 °C; • 9) 100 µL of the supernatant and 100 µL of purified water were mixed homogenously for liquid chromatography-mass spectrometry.
An internal standard method was used, and the plasma protein binding rate, recovery rate, and residual percentage were calculated by using Excel according to the ratio of the peak area of the sample to the peak area of the internal standard. Free rate(%) = (RatioB)/(RatioP) × 100% [formula] Binding rate(%) = 100%−Free rate% [formula] Recovery rate(%) = (RatioB + RatioP)/(RatioT0) × 100% [formula] Remaining percentage(%) = (RatioT6)/(RatioT0) × 100% [formula]
RatioB: a ratio of the peak area of the test substance on the PBS side to the peak area of the internal standard; RatioP: a ratio of the peak area of the test substance on the plasma side to the peak area of the internal standard; RatioT6: a ratio of the peak area of the sample after incubation with the test substance for 6 h to the peak area of the internal standard; RatioT0: a ratio of the peak area of the sample after incubation with the test substance for 0 h to the peak area of the internal standard. Table 8. Plasma protein binding rate (Fu%) data for various species of example compounds

SMILES strings stand for the structures.

At KAT8, `COc1cc2c(cc1S(=O)(=O)Nc1noc3cc(Cn4cccn4)nc(OC)c13)CCCC2` [Example 2, N-(6-((1H-Pyrazol-1-yl)methyl)-4-methoxyisoxazolo[4,5-c]pyridin-3-yl)-3-methoxy-5,6,7,8-tetrahydronaphthalene-2-sulfonamide] came in with an IC50 of 118 nM. The fraction unbound at 6 h, 1 µM in data set [1] stood at 0.0065.

For `COc1ccc2c(c1S(=O)(=O)Nc1noc3cc(Cn4cccn4)nc(OC)c13)OCC2` [Example 9, N-(6-((1H-Pyrazol-1-yl)methyl)-4-methoxyisoxazolo[4,5-c]pyridin-3-yl)-6-methoxy-2,3-dihydrobenzofuran-7-sulfonamide], in data set [1], the fraction unbound at 6 h, 1 µM amounted to 0.0478.

Compound `COc1ccc2ccoc2c1S(=O)(=O)Nc1noc2cc(Cn3cccn3)nc(OC)c12` [Example 10, N-(6-((1H-Pyrazol-1-yl)methyl)-4-methoxyisoxazolo[4,5-c]pyridin-3-yl)-6-methoxybenzofuran-7-sulfonamide] displayed an IC50 against KAT8 of 79.4 nM. Moreover, in data set [1], the fraction unbound at 6 h, 1 µM came to 0.0512.

Turning to `COc1cc2c(cc1S(=O)(=O)Nc1noc3cc(Cn4cccn4)nc(OC)c13)OCC2` [Example 59, N-(6-((1H-Pyrazol-1-yl)methyl)-4-methoxyisoxazolo[4,5-c]pyridin-3-yl)-5-methoxy-2,3-dihydrobenzofuran-6-sulfonamide], inhibition against KAT8 was half-maximal at 327 nM (IC50). In addition, in data set [1], the fraction unbound at 6 h, 1 µM came to 0.05.

For `COc1cc2c(cc1S(=O)(=O)Nc1noc3cc(Cn4cccn4)nc(OC)c13)CCCO2` [Example 76, N-(6-((1H-Pyrazol-1-yl)methyl)-4-methoxyisoxazolo[4,5-c]pyridin-3-yl)-7-methoxy-3,4-dihydro-1H-benzopyran-6-sulfonamide], the fraction unbound at 6 h, 1 µM in data set [1] is 0.0072.
